What was measured:
P. aeruginosa Xen41 = experiment: Chronic full-thickness wound infection model: bacterial load; format: in vivo, Balb/c mice
Experimental: Immediately after wounding, group 1 was inoculated with 10^7 CFU of bioluminescent P. aeruginosa strain (Xen41, PerkinElmer, Waltham, MA, USA) in 10 μL of 0.9% saline. All other mice were covered with an adhesive dressing (Opsite Flexigrid, Smith & Nephew, London, UK). All mice were given soaked food and free access to water for the study. Postoperative analgesia (0.05 mg/kg buprenorphine) was provided 10 h and 24 h post-surgery via subcutaneous administration. After inoculation, mice were imaged using IVIS Spectrum Live Animal Imaging System (PerkinElmer, Waltham, MA, USA) and then daily until sacrifice to quantity radiance (photons/s) of the bioluminescent bacteria in the wound and correlate to the infection load, as previously described (Abbott C A et al., 2013, Contributors, in Handbook of Proteolytic Enzymes, N. D. Rawlings and G. Salvesen, Editors. 2013, Academic Press. p. xxxv-xlviii). Using built-in Living Image R software, regions of interest (ROI) were selected surrounding the wound to quantify the total photon emission following established protocols (Haidari, H., et al., 2021, Acta Biomaterialia, 128: 420-434; Kopecki, Z., et al., 2009, Journal of Investigative Dermatology, 129(8): 2031-2045).
After the pilot, it was determined that a 6 mm wound+10^6 CFU P. aeruginosa infection was the appropriate model to proceed with. […]

P. aeruginosa (PAO1) = experiment: C. elegans PAO1 infection model; format: in vivo, Caenorhabditis elegans
Experimental: For the infection study, an overnight culture of P. aeruginosa (PAO1) was diluted to an OD of 0.1 and 200 μL was seeded onto NGM (50 mM NaCl and 0.35% peptone) agar plates for 12 h at 37° C. After 12 h, the collected L4 stage nematodes were incubated on PAO1 seeded agar plates and allowed to feed on the bacteria for 6 h at 25° C. (Uccelletti D et al., 2010, Antimicrobial Agents and Chemotherapy 54(9), 3853-3860). Thereafter, the nematodes were removed from the agar and washed multiple times to remove PAO1 from the outside and the nematodes were split into groups of 20 in OGM medium. Besides the non-treated control, the infected nematodes were treated with various concentrations of tobramycin as an unformulated solution or loaded in MO-LCNPs.
In both the healthy and infected nematodes study, nematodes were assessed as live or dead under a bright field microscopy through either being curled and moving (live) or stiff and non-moving (dead) at 4 h, 24 h and 48 h post treatment. The percentage of live nematodes to the total number of nematodes in the samples was compared to healthy, non-treated controls to compute the % survival.
Following 24 h and 48 h, samples of the nematodes were taken and washed with M9 buffer containing 1 mM sodium azide and then 0.01 M PBS before being counted. The nematodes were then mechanically disrupted via vortex mixing in tubes with 200 mg of 1.0 mm silicon carbide beads (BioSpec Products, Bartleville, OK) for 10 mins (Richter K et al. 2017, Frontiers in Cellular and Infection Microbiology, 7: Article 280). The disrupted nematodes and bacterial suspensions were serial diluted and spot plated on Pseudomonas isolation agar for colony forming units (CFU) counting to determine the CFU per nematode.

[1] = Deposition efficiency after nebulisation (Aerogen Pro vibrating mesh nebuliser); format: physicochemical; conditions: 100 μL nebulised into 24-well plate
Experimental: The Aerogen® Pro (vibrating mesh nebuliser) connected to a nebuliser chamber was used to aerosolise unformulated solutions of TOB, and LCNPs loaded with TOB. The nebulisation chamber fitted into the well of a 24-well plate, ensuring the dose was deposited into a single well. Before use, the nebuliser was rinsed twice with 0.9% NaCl. Then each formulation of TOB was tested to ensure an even aerosol was produced. 100 μL of TOB as an unformulated solution, and in MO-LCNPs and PHY-LCNPs was nebulised into the wells of a 24-well plate that contained 200 μL of 0.9% sodium chloride. The total drug concentration was then determined from each well to calculate the total mass deposited. […] The nebulised samples were assessed for particle size and zeta potential, as described above.
For the nebulisation samples and transport studies (see below), TOB was quantified by liquid chromatography tandem mass spectrometry (LC-MS) using a Dionex UltiMate 3000 Binary Rapid Separation LC System (Thermo Scientific, USA) coupled with a TSQ Quantum Access Max (QQQ, Thermo Scientific, USA) and a modified ion-pairing method. […] 3 μL of the samples were injected and quantification was done by ESI+ and the SRM of the ion 468.184→323.960.

Compound: NC[C@H]1O[C@H](O[C@H]2[C@H](O)[C@@H](O[C@H]3O[C@H](CO)[C@@H](O)[C@H](N)[C@H]3O)[C@H](N)C[C@@H]2N)[C@H](N)C[C@@H]1O [unformulated TOB, tobramycin]
- change in infection level compared to saline (P. aeruginosa Xen41; after each once-daily dose): no statistical change in the infection level
- P. aeruginosa remaining in excised wounds (P. aeruginosa Xen41; day six, after three doses of 15 μg topical): 5×10^6 CFU
- survival of infected nematodes (P. aeruginosa (PAO1); 24 h, 3 μg/mL): 13%
- survival of infected nematodes (P. aeruginosa (PAO1); 24 h, 6 μg/mL): 65%
- survival of infected nematodes (P. aeruginosa (PAO1); 24 h, 15 μg/mL): 83%
- bacteria killed compared to control (P. aeruginosa (PAO1); 24 h, 15 μg/mL and 60 μg/mL): 1 log
- survival of infected nematodes (P. aeruginosa (PAO1); 24 h, 60 μg/mL): 87%
- PAO1 infection level (P. aeruginosa (PAO1); 48 h): ~4 log
- survival of infected nematodes (P. aeruginosa (PAO1); 48 h, 3 μg/mL): 7%
- PAO1 surviving (P. aeruginosa (PAO1); 48 h, 60 μg/mL): 2 log
- average survival of infected nematodes (P. aeruginosa (PAO1); 48 h, 6-60 μg/mL): 65%
- deposition efficiency of TOB [1]: 3.25%
